Reference: ChEMBL document CHEMBL1142399, “Water-soluble pleuromutilin derivative with excellent in vitro and in vivo antibacterial activity against gram-positive pathogens” (J Med Chem, 2008)
≈ marks a conversion by molar mass, not a printed value.

Experiments:
Cutibacterium acnes = assay: Antibacterial activity against Propionibacterium acnes GAI 5568 by broth microdilution method; assay type: functional
Streptococcus pneumoniae [1] = assay: microbe, parasite or virus in culture
[2] = tested on: Mycoplasmoides pneumoniae; assay: Antibacterial activity against Mycoplasma pneumoniae Mac by broth microdilution method; assay type: functional
Staphylococcus aureus [3] = assay: Antibacterial activity against methicillin-resistant Staphylococcus aureus KT0116 in mouse dosed iv 1 hr after infection; assay type: functional
Haemophilus influenzae = assay: Antibacterial activity against Haemophilus influenzae TH13 by broth microdilution method; assay type: functional
Clostridium perfringens = assay: Antibacterial activity against Clostridium perfringens GAI 5526 by broth microdilution method; assay type: functional
[4] = tested on: Staphylococcus saccharolyticus; assay: Antibacterial activity against Staphylococcus saccharolyticus GAI 5520 by broth microdilution method; assay type: functional
Streptococcus pneumoniae [5] = assay: Antibacterial activity against penicillin-susceptible Streptococcus pneumoniae ATCC 6303 in mouse pulmonary infection model assessed as survival at 6.25 mg/kg, ip twice daily for 3 days; assay type: functional; details: route intraperitoneal
[6] = tested on: Propionibacterium granulosum; assay: Antibacterial activity against Propionibacterium granulosum GAI 7414 by broth microdilution method; assay type: functional; details: Cutibacterium granulosum
Streptococcus pneumoniae [7] = assay: Antibacterial activity against penicillin-resistant Streptococcus pneumoniae KT2524 in mouse dosed iv 1 hr after infection; assay type: functional
[8] = tested on: Mycoplasmoides pneumoniae; assay: Antibacterial activity against Mycoplasma pneumoniae FH Liu by broth microdilution method; assay type: functional
Enterococcus faecium [9] = assay: Antibacterial activity against vancomycin-resistant Enterococcus faecium KU1778 clinical isolate by broth microdilution method; assay type: functional
Moraxella catarrhalis = assay: Antibacterial activity against Moraxella catarrhalis K1209 by broth microdilution method; assay type: functional
Staphylococcus aureus [10] = assay: Antibacterial activity against methicillin-susceptible Staphylococcus aureus Smith in mouse dosed iv 1 hr after infection; assay type: functional
[11] = tested on: Peptostreptococcus anaerobius; assay: Antibacterial activity against Peptostreptococcus anaerobius GAI 5506 by broth microdilution method; assay type: functional
Streptococcus pneumoniae [12] = assay: microbe, parasite or virus in culture; details: ATCC 49619
Streptococcus pneumoniae [13] = assay: Antibacterial activity against penicillin-susceptible Streptococcus pneumoniae ATCC 49619 in mouse dosed iv 1 hr after infection; assay type: functional; details: ATCC 49619, iv
[14] = tested on: Streptococcus intermedius; assay: Antibacterial activity against Streptococcus intermedius GAI 7416 by broth microdilution method; assay type: functional
Finegoldia magna = assay: Antibacterial activity against Peptostreptococcus magnus GAI 5528 by broth microdilution method; assay type: functional
Atopobium parvulum = assay: Antibacterial activity against Atopobium parvulum GAI 5542 by broth microdilution method; assay type: functional; details: Lancefieldella parvula
[15] = tested on: Peptoniphilus asaccharolyticus; assay: Antibacterial activity against Peptostreptococcus asaccharolyticus GAI 5534 by broth microdilution method; assay type: functional
Staphylococcus aureus [16] = assay: microbe, parasite or virus in culture; details: Smith
Staphylococcus aureus [17] = assay: microbe, parasite or virus in culture
Enterococcus faecium [18] = assay: microbe, parasite or virus in culture; details: ATCC 19434
Staphylococcus aureus [19] = assay: microbe, parasite or virus in culture; details: KMP9
[20] = tested on: Staphylococcus epidermidis; assay: Antibacterial activity against Staphylococcus epidermidis ATCC 12228 by broth microdilution method; assay type: functional
Enterococcus faecalis = assay: microbe, parasite or virus in culture; details: ATCC 29212
Staphylococcus aureus [21] = assay: microbe, parasite or virus in culture; remark: listed apart in the source
Streptococcus pyogenes = assay: Antibacterial activity against Streptococcus pyogenes ATCC 12344 by broth microdilution method; assay type: functional
Streptococcus pneumoniae [22] = assay: Antibacterial activity against penicillin-susceptible Streptococcus pneumoniae ATCC 49619 in mouse dosed twice iv 1 hr and 4 hrs after infection; assay type: functional; details: ATCC 49619, iv
Streptococcus pneumoniae [23] = assay: Antibacterial activity against penicillin-resistant Streptococcus pneumoniae KT2524 in mouse dosed twice iv 1 hr and 4 hrs after infection; assay type: functional
Staphylococcus aureus [24] = assay: Antibacterial activity against methicillin-resistant Staphylococcus aureus KT0116 in mouse dosed twice iv 1 hr and 4 hrs after infection; assay type: functional
Staphylococcus aureus [25] = assay: Antibacterial activity against methicillin-susceptible Staphylococcus aureus Smith in po dosed mouse twice daily; assay type: functional
Staphylococcus aureus [26] = assay: Antibacterial activity against methicillin-susceptible Staphylococcus aureus Smith in mouse dosed twice iv 1 hr and 4 hrs after infection; assay type: functional

Compound | MIC (Cutibacterium acnes) [µg/mL] | MIC (Streptococcus pneumoniae [1]) [µg/mL] | MIC [2] [µg/mL] | ED50 (Staphylococcus aureus [3]) [mg/kg] | MIC (Haemophilus influenzae) [µg/mL] | MIC (Clostridium perfringens) [µg/mL] | MIC [4] [µg/mL] | ED50 (Streptococcus pneumoniae [7]) [mg/kg] | MIC (Enterococcus faecium [9]) [µg/mL] | MIC (Moraxella catarrhalis) [µg/mL] | ED50 (Staphylococcus aureus [10]) [mg/kg] | MIC (Streptococcus pneumoniae [12]) [µg/mL] | ED50 (Streptococcus pneumoniae [13]) [mg/kg] | MIC (Staphylococcus aureus [16]) [µg/mL] | MIC (Staphylococcus aureus [17]) [µg/mL] | MIC (Enterococcus faecium [18]) [µg/mL] | MIC (Staphylococcus aureus [19]) [µg/mL] | MIC [20] [µg/mL] | MIC (Staphylococcus aureus [21]) [µg/mL] | MIC (Streptococcus pyogenes) [µg/mL] | other results
CN[C@H](CC(C)C)C(=O)N[C@H]1C(=O)N[C@@H](CC(N)=O)C(=O)N[C@H]2C(=O)N[C@H]3C(=O)N[C@H](C(=O)N[C@H](C(=O)O)c4cc(O)cc(O)c4-c4cc3ccc4O)[C@H](O)c3ccc(c(Cl)c3)Oc3cc2cc(c3O[C@@H]2O[C@H](CO)[C@@H](O)[C@H](O)[C@H]2O[C@H]2C[C@](C)(N)[C@H](O)[C@H](C)O2)Oc2ccc(cc2Cl)[C@H]1O [VANCOMYCIN] | 0.5 (≈ 0.345 µM) | 0.5 (≈ 0.345 µM) | > 128 | 1.01 | > 128 | 0.5 (≈ 0.345 µM) | 2 (≈ 1.38 µM) | 2.37 | > 128 | 64 (≈ 44.2 µM) | 0.88 | 0.25 (≈ 0.173 µM) | 1.06 |  |  |  |  |  |  |  | Activity (Streptococcus pneumoniae [5]): 50%; MIC [6]: 0.5 µg/mL (≈ 0.345 µM); MIC [8]: > 128 µg/mL; MIC [11]: 0.25 µg/mL (≈ 0.173 µM); MIC [14]: 1 µg/mL (≈ 0.69 µM); MIC (Finegoldia magna): 0.25 µg/mL (≈ 0.173 µM); MIC (Atopobium parvulum): 2 µg/mL (≈ 1.38 µM); MIC [15]: 0.125 µg/mL (≈ 0.0863 µM)
CC[C@H]1OC(=O)[C@H](C)[C@@H](O[C@H]2C[C@@](C)(OC)[C@@H](O)[C@H](C)O2)[C@H](C)[C@@H](O[C@@H]2O[C@H](C)C[C@H](N(C)C)[C@H]2O)[C@](C)(O)C[C@@H](C)C(=O)[C@H](C)[C@@H](O)[C@]1(C)O [ERYTHROMYCIN] |  | > 128 |  | > 100 | 2 (≈ 2.73 µM) |  |  | > 100 | > 128 | 0.032 (≈ 0.0436 µM) | 2.55 | 0.016 (≈ 0.0218 µM) | 1.48 | 0.125 (≈ 0.17 µM) | 0.063 (≈ 0.0858 µM) | 1 (≈ 1.36 µM) | 32 (≈ 43.6 µM) | 0.063 (≈ 0.0858 µM) | > 128 | 0.008 (≈ 0.0109 µM) | MIC (Enterococcus faecalis): 2 µg/mL (≈ 2.73 µM)
CN(C)c1ccc(O)c2c1C[C@H]1C[C@H]3[C@H](N(C)C)C(O)=C(C(N)=O)C(=O)[C@@]3(O)C(O)=C1C2=O [MINOCYCLINE] | 0.125 (≈ 0.273 µM) | 8 (≈ 17.5 µM) | 0.25 (≈ 0.546 µM) | 50 | 0.5 (≈ 1.09 µM) | 0.063 (≈ 0.138 µM) | 0.125 (≈ 0.273 µM) | 50 | 0.063 (≈ 0.138 µM) | 0.25 (≈ 0.546 µM) | 0.515 | 0.032 (≈ 0.0699 µM) | 0.968 | 0.063 (≈ 0.138 µM) | 0.063 (≈ 0.138 µM) | 0.063 (≈ 0.138 µM) | 4 (≈ 8.74 µM) | 0.125 (≈ 0.273 µM) | 16 (≈ 35 µM) | 0.063 (≈ 0.138 µM) | MIC [6]: 0.25 µg/mL (≈ 0.546 µM); MIC [8]: 0.25 µg/mL (≈ 0.546 µM); MIC [11]: 0.032 µg/mL (≈ 0.0699 µM); MIC [14]: 0.25 µg/mL (≈ 0.546 µM); MIC (Finegoldia magna): 0.125 µg/mL (≈ 0.273 µM); MIC (Atopobium parvulum): 0.25 µg/mL (≈ 0.546 µM); MIC [15]: 16 µg/mL (≈ 35 µM)
CC[C@]1(C)C[C@@H](OC(=O)CSc2nnc(N)[nH]2)[C@]2(C)[C@H](C)CC[C@]3(CCC(=O)[C@H]32)[C@@H](C)[C@@H]1O [AZAMULIN] |  | 0.5 (≈ 1.04 µM) |  |  | 0.5 (≈ 1.04 µM) |  |  |  | 0.25 (≈ 0.522 µM) | 0.032 (≈ 0.0669 µM) |  | 0.5 (≈ 1.04 µM) |  | 0.5 (≈ 1.04 µM) | 0.25 (≈ 0.522 µM) | 0.5 (≈ 1.04 µM) | 2 (≈ 4.18 µM) | 0.25 (≈ 0.522 µM) | 1 (≈ 2.09 µM) | 0.25 (≈ 0.522 µM) | ED50 (Streptococcus pneumoniae [22]): 12.9 mg/kg; MIC (Enterococcus faecalis): 128 µg/mL (≈ 267 µM); ED50 (Streptococcus pneumoniae [23]): 17.7 mg/kg; ED50 (Staphylococcus aureus [24]): 5.2 mg/kg; ED50 (Staphylococcus aureus [25]): 13.3 mg/kg; ED50 (Staphylococcus aureus [26]): 6.88 mg/kg
